From US5798350A, “Dopamine receptor ligands” (Allelix Biopharmaceuticals, Inc., priority 1996, dated 1998)

Biological target: T1, human D4 receptor (D4.2 sub-type) (Homo sapiens, UniProt P21917, DEL265-296)
T1 construct: expressed in transfected cells; host or cells: HEK 298 (human embryonic kidney) cells, [sic]; homogenate of stably transfected cells
T1 sequence (P21917 with tags, fused parts or gaps DEL265-296): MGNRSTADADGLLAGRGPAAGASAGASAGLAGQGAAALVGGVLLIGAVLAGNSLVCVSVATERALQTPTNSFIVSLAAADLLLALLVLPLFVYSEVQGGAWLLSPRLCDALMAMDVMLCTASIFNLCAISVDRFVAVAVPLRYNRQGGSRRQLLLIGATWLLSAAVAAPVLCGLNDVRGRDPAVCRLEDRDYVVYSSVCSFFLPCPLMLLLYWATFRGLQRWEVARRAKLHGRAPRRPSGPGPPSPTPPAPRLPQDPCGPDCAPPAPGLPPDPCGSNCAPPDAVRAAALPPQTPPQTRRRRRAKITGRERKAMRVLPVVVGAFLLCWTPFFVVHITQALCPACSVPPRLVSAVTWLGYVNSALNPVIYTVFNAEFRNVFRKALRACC
Test: D4 receptor binding, displacement of 3H-spiperone
Conditions: for Ki: human D4 receptor, 3H-spiperone 0.25 nM
Description: The potency of the test compound to reduce ^3 H-spiperone binding directly correlated to its binding affinity for the receptor.
The cells were then centrifuged in a Sorval centrifuge for 10 minutes, 5000 rpm (GS3 rotor) and the pellets quickly frozen in liquid nitrogen and stored at -80° C. until used in binding assay. When used in the assay, cells were thawed on ice for 20 minutes and then 10 mL of incubation buffer (50 mM Tris, 1 mM EDTA, 4 mM MgCl2, 5 mM KCl, 1.5 mM CaCl2, 120 mM NaCl, pH7.4) was added. […] Concentration of receptor protein was determined using the Pierce BCA assay.
Total Spiperone Binding Assay
The tubes were vortexed and incubated at room temperature for 90 minutes. The binding reaction was stopped by filtering using a Brandell Cell Harvester. The samples were filtered under vacuum over glass fibre filters (Whatman GF/B) presoaked for 2 hours in 0.3% polyethyleneimine (PEI) in 50 mM Tris buffer (pH7.4). The filters were then washed 3 times with 5 mL ice cold 50 mM Tris buffer (pH7.4). Individual filter disks were put in scintillation vials (Biovials, Bechman). Ready Protein Plus liquid scintillant (5 mL, Beckman) was added and the vials counted by liquid scintillation spectrophotometry (Beckman LSC 6500) after equilibrating for three hours at room temperature to determine total binding (BT).
Non-Specific Binding Assay for D4
The tubes were vortexed and incubated at room temperature for 90 minutes at which time the binding reaction was stopped by filtering. The filters were washed and counted using the same procedure as in the total binding assay described above to give the non-specific binding value (NSB).
Displacement Binding Assay
The incubation was started by the addition to 12×75 mm polypropylene tubes 500 μl (50 μg protein) membrane homogenate to a solution of 400 μl incubation buffer, 100 μl (0.25 final conc.) ^3 H-spiperone (90Ci/mmol, Amersham, diluted in borosilicate glass vial to) and […] of test compound that was prepared from 1 mM stock dissolved in DMSO and stored at -20° C. in polypropylene cryogenic storage vials until dilution in incubation buffer in borosilicate glass vials. The tubes were vortexed and incubated at room temperature for 90 minutes at which time the binding reaction was stopped by filtering. The filters were washed and counted using the same procedure as in the total binding assay described above to give the displacement binding value (BD).
IC50 was determined from an inhibition response curve, logit-log plot of %B/BO vs concentration of test compound.
Ki was calculated by the Cheng and Prustoff transformation: […]
where [L] is the concentration of ^3 H-spiperone used in the assay and KD is the to dissociation constant of ^3 H-spiperone determined independently under the same binding conditions.

[1] = compared with corresponding 4-methyl piperazine compound

| Ki [nM] | D4 affinity (compared with clozapine) | Compound | D4 affinity and selectivity [1] | D4 affinity and selectivity (compared with clozapine) | D4 affinity and selectivity (compared with clozapine and the corresponding 4-methyl compound) |
| --- | --- | --- | --- | --- | --- |
| 30 |  | c1ccc2c(c1)N=C(N1CCN(Cc3ccc4c(c3)OCO4)CC1)c1ccccc1O2 [11-(4-piperonyl)-1-piperazinyl)-dibenz[b,f][1,4]oxazepine] | better D4 affinity and selectivity than the corresponding 4-methyl piperazine compound |  |  |
| 8.3 |  | Clc1ccc2c(c1)C=C(N1CCN(Cc3ccc4c(c3)OCO4)CC1)c1ccccc1S2 [2-chloro-10-(4-piperonyl-1-piperazinyl)dibenzo[b,f]thiepine] |  |  |  |
| 4 | better D4 affinity than clozapine | Clc1ccc2c(c1)N=C(N1CCN(Cc3ccc4c(c3)OCO4)CC1)c1ccccc1O2 [8-chloro-11-(4-piperonyl)-1-piperazinyl)dibenz[b,f][1,4]oxazepine] | better D4 affinity and selectivity than the corresponding 4-methyl piperazine compound | better D4 affinity and selectivity than clozapine | better than clozapine and the corresponding 4-methyl compound |
| 23.5 |  | Clc1ccc2c(c1)Nc1ccccc1N=C2N1CCN(Cc2ccc3c(c2)OCO3)CC1 [3-chloro-11-(4-piperonyl-1-piperazinyl)-5H-dibenzo[b,e][1,4]diazepine] |  |  |  |
